Reference: patent US5976783A, “Bis-maleimido cross-linking agents” (Boehringer Mannheim Corporation, priority 1997, dated 1999)

Assays:
[1] = stability of 4-maleimidobutyraldehyde on work-up; format: physicochemical; conditions: work-up needed low temperatures (0° C.) and complete exclusion of oxygen
Experimental: 4-Maleimidobutyraldehyde diethylacetal (2 g, 8.29 mmol) in tetrahydrofuran (20 ml) and water (0.5 ml) was stirred under argon and DOWEX 50X8 ion exchange resin (H^+, 2 g, ® Dow Chemical Co.) was added. After 12 hours stirring at room temperature, the solvent was decanted, dried (MgSO4) and evaporated in vacuo to afford 4-maleimidobutyraldehyde (formula III) as a yellow oil which rapidly solidified on standing (1.38 g, 99%); TLC Rf=0.4, ethyl acetate/hexane 1:1.

ICE protease = conditions: See Nature 375:78-81 (1995); cited from earlier work

Structure (SMILES): O=CCCCN1C(=O)C=CC1=O [4-maleimidobutyraldehyde]
- stability [1]: extremely unstable

Structure (SMILES): CC(=O)N[C@@H](Cc1ccc(O)cc1)C(=O)N[C@H](C(=O)N[C@@H](C)C(=O)N[C@@H](CC(=O)O)C(=O)CCl)C(C)C [Ac-Tyr-Val-Ala-Asp-*]
- inhibition of ICE protease (ICE protease): potent inhibitor
